Source: EP0533240A2, “Substituted amine derivatives of piperazinylcamphorsulfonyl oxytocin antagonists” (MERCK & CO. INC., priority 1991, dated 1993)

Target: T1, uterine OT receptors (Rattus norvegicus, UniProt P70536)
T1 construct: from tissue; host or cells: uterus of DES-treated rats, crude membrane preparation
T1 sequence (P70536 1-388): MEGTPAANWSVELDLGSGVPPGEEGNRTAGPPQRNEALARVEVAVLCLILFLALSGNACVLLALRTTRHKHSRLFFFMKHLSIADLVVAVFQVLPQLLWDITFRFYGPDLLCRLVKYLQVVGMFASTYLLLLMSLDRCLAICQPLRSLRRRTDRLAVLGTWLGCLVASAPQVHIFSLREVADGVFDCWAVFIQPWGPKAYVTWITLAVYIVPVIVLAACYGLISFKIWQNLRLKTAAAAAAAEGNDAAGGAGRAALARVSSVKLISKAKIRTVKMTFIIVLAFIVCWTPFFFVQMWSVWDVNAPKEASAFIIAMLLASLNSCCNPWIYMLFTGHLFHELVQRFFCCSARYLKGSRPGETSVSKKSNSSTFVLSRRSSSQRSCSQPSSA
Assay: [3H]Oxytocin radioligand binding assay, crude uterine membrane preparation
Design: species or system rats
Details: for IC50: competition with 1 nM [3H]OT, 60 minutes, 22 °C, membranes of uteri from DES-treated rats; for inhibition at 0.1 µM: at 100 nM compound; for inhibition at 0.1 µM / inhibition at 1 µM: 1 nM [3H]OT, rat uterine membranes; for inhibition at 1 µM: at 1,000 nM compound
Description: Oxytocin (OT)([tyrosyl, 3,5-[^3H]OT; 30-60 Ci/mmol; New England Nuclear. Boston, MA) to uterine OT receptors was based on an assay*using a crude membrane preparation of uteri taken from diethylstilbestrol dipropionate (DES)-treated (0.3 mg/kg, ip; 18-24) rats. Competetion studies were conducted at equilibrium (60 minutes; 22 °C) using 1 nM[^3H]OT in the following assay buffer: 50 mM Tris-HCI, 5 mM MgCl2, and 0.1% BSA, pH 7.4. Nonspecific binding (10% of the total binding) was determined using 1µM unlabeled OT and the binding reaction was terminated by filtration through glass fiber filters using a cell harvester (model 7019, Skatron, Inc., Sterling, VA).

| SMILES | IC50 [nM] | also measured |
| --- | --- | --- |
| CCOC(=O)CCCN1CCCC1C(=O)NCC(C)C1(O)CC2CCC1(CS(=O)(=O)N1CCN(c3ccccc3C)CC1)C2(C)C [Example 5, 1-((7,7-DIMETHYL-2-EXO-HYDROXY-2-ENDO-2-(1-(L-N-(ETHOXYCARBONYLPROPYL)PROLYL)AMINO)-PROPYL-BICYCLO-(2.2.1)HEPTAN-1-YL)METHANESULFONYL)-4-(2-METHYLPHENYL) PIPERAZINE] | 100 | – |
| Cc1ccccc1N1CCN(S(=O)(=O)CC23CCC(CC2(O)C(C)CNC(=O)C2CCCN2CCCC(=O)O)C3(C)C)CC1 [Example 6, 1-((7,7-DIMETHYL-2-EXO-HYDROXY-2-ENDO-2-(1-(L-N-(3-CARBOXYPROPYL)PROLYL)AMINO)PROPYL-BICYCLO(2.2.1) HEPTAN-1 -YL)METHANESULFONYL)-4-(2-METHYLPHENYL) PIPERAZINE] | 10 | – |
| Cc1ccccc1N1CCN(S(=O)(=O)CC23CCC(CC2(O)C(C)CNC(=O)Cc2c[nH]cn2)C3(C)C)CC1 (stereo not drawn) [Example 7] | 8 | – |
| Cc1ccccc1N1CCN(S(=O)(=O)CC23CCC(CC2(O)C(C)CNC(=O)C2CN4CCC2CC4)C3(C)C)CC1 (stereo not drawn) [Example 8] | 18 | – |
| COC(=O)CCNCC(C)C1(O)CC2CCC1(CS(=O)(=O)N1CCN(c3ccccc3C)CC1)C2(C)C (stereo not drawn) [Example 10] | – | inhibition at 0.1 µM: 48% |
| COC(=O)CCN(CCC(=O)OC)CC(C)C1(O)CC2CCC1(CS(=O)(=O)N1CCN(c3ccccc3C)CC1)C2(C)C (stereo not drawn) [Example 11, 1-((7,7-dimethyl-2-exo-hydroxy-2-endo-2-(1-bis-(2-methoxycarbonylethyl)amino)propylbicyclo(2.2.1)heptan-1-yl)methanesulfonyl)-4-(2-methylphenyl)piperazine] | 54 | – |
| C=CC1(O)CC2CCC1(CS(=O)(=O)N1CCN(c3ccccc3C)CC1)C2(C)C (stereo not drawn) [Example 12, 1-((7,7-dimethyl-2-exo-hydroxy-2-endo-ethenyl-bicyclo(2.2.1)heptan-1-yl)methanesulfonyl)-4-(2-methylphenyl)piperazine] | – | inhibition at 0.1 µM: 23% |
| Cc1ccccc1N1CCN(S(=O)(=O)CC23CCC(CC2=CCNCC(C)C)C3(C)C)CC1 (stereo not drawn) [Example 14, 1-((7,7-dimethyl-2-(2-isobutylamino)ethylidine-bicyclo (2.2.1)heptan-1-yl)methanesulfonyl)-4-(2-methylphenyl) piperazine] | 1100 | – |
| Cc1ccccc1N1CCN(S(=O)(=O)CC23CCC(CC2=CCN=[N+]=[N-])C3(C)C)CC1 (stereo not drawn) [Example 15, 1-((7,7-dimethyl-2-(2-azido)ethylidine-bicyclo(2.2.1)heptan-1-yl)methanesulfonyl)-4-(2-methylphenyl)-piperazine] | – | inhibition at 1 µM: 44% |
| Cc1ccccc1N1CCN(S(=O)(=O)CC23CCC(CC2=CCN)C3(C)C)CC1 (stereo not drawn) [Example 16, 1-((7,7-dimethyl-2-(2-amino)ethylidine-bicyclo(2.2.1)heptan-1-yl)methanesulfonyl)-4-(2-methylphenyl)-piperazine] | – | inhibition at 1 µM: 64% |
| Cc1ccccc1N1CCN(S(=O)(=O)CC23CCC(CC24CO4)C3(C)C)CC1 (stereo not drawn) [Example 18] | – | inhibition at 1 µM: 75% |

Now from value to molecule, other results behind:

| IC50 [nM] | SMILES | also measured |
| --- | --- | --- |
| 150 | Cc1ccccc1N1CCN(S(=O)(=O)CC23CCC(CC2(O)C(C)C#N)C3(C)C)CC1 (single isomer, unassigned) [Example 2, 1-((7,7-DIMETHYL-2-EXO-HYDROXY-2-ENDO-(1-CYANO)ETHYL-BICYCLO(2.2.1)HEPTAN-1-YL)-METHANESULFONYL)-4-(2-METHYL PHENYL)PIPERAZINE] | – |
| 180 | Cc1ccccc1N1CCN(S(=O)(=O)CC23CCC(CC2(O)C(C)CN)C3(C)C)CC1 (single isomer, unassigned) [Example 3, 1-((7,7-DIMETHYL-2-EXO-HYDROXY-2-ENDO-2-(1-AMINO)PROPYL-BICYCLO(2.2.1 )HEPTAN-1-YL)-METHANESULFONYL)-4-(2-METHYLPHENYL)PIPERAZINE] | – |
| 1000 | Cc1ccccc1N1CCN(S(=O)(=O)CC23CCC(CC2=O)C3(C)C)CC1 (stereo not drawn) [Example 1, 1-((7,7-DIMETHYL-2-OXO-BICYCLO(2.2.1)HEPTAN-1-YL) METHANESULFONYL)-4-(2-METHYLPHENYL)-PIPERAZINE] | – |
| 34 | Cc1ccccc1N1CCN(S(=O)(=O)CC23CCC(CC2(O)C(C)CNC(=O)C2CCCN2)C3(C)C)CC1 (stereo not drawn) [Example 4] | – |
